Experimental data as given in ChEMBL document CHEMBL3085709, “Modulators of the Sphingosine 1-phosphate receptor 1” (Bioorg Med Chem Lett, 2013).

Columns and labels:
Rattus norvegicus [1] = experiment: Immunomodulatory activity in rat assessed as decrease in peripheral blood lymphocyte count at 100 mg/kg, po after 12 hrs; type: functional; design: scale not given: the % may be the effect or the level left
[2] = Half life of the compound; type: physicochemical
Mus musculus = experiment: Immunomodulatory activity in po dosed mouse assessed as decrease in peripheral blood lymphocyte count after 3 hrs; type: functional
[3] = target: T1, Sphingosine 1-phosphate receptor 5 (Homo sapiens, UniProt Q9H228); experiment: Agonist activity at human S1P5 receptor expressed in CHO cells by [35S]GTPgammaS binding assay; type: functional, cell-based
T1 sequence (Q9H228 whole entry): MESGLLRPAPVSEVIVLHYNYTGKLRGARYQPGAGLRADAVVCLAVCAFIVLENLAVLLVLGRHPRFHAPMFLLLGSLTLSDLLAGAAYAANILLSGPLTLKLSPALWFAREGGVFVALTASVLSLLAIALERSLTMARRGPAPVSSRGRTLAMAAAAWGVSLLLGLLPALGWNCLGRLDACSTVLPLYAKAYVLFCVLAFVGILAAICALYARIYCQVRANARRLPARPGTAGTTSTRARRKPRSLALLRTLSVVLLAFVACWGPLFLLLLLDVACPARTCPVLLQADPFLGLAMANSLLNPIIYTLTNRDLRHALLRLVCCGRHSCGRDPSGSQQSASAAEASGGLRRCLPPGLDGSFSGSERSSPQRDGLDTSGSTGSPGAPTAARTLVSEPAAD

[4] = target: T2, Sphingosine 1-phosphate receptor 4 (Homo sapiens, UniProt O95977); experiment: Agonist activity at human S1P4 receptor expressed in CHO cells by [35S]GTPgammaS binding assay; type: functional, cell-based
T2 sequence (O95977 whole entry): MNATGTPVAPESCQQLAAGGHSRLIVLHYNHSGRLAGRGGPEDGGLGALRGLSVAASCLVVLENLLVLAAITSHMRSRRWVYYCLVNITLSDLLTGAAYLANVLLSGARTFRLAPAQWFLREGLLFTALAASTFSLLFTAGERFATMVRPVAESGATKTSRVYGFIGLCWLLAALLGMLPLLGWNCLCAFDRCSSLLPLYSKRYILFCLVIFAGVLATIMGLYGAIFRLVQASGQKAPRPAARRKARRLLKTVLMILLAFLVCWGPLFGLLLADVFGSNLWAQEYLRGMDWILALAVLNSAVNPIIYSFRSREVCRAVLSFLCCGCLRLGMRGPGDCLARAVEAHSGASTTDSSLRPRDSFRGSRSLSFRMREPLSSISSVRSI

[5] = Half life in human; type: ADME, organism-based; details: in vivo
Rattus norvegicus [6] = experiment: Immunomodulatory activity in rat assessed as decrease in peripheral blood lymphocyte count at 30 mg/kg, po after 48 hrs; type: functional; design: scale not given: the % may be the effect or the level left
[7] = target: T2, Sphingosine 1-phosphate receptor 4; experiment: Antagonist activity at human S1P4 receptor expressed in CHO cells assessed as inhibition of agonist-induced calcium mobilization preincubated for 20 mins by Fluo-4/FLIPR method; type: functional, cell-based
[8] = target: T2, Sphingosine 1-phosphate receptor 4; experiment: Agonist activity at S1P4 receptor (unknown origin)
Rattus norvegicus [9] = experiment: Immunomodulatory activity in rat assessed as decrease in peripheral blood lymphocyte count at 30 mg/kg, po after 14 to 24 hrs; type: functional; design: scale not given: the % may be the effect or the level left
[10] = target: T1, Sphingosine 1-phosphate receptor 5; experiment: Antagonist activity at human S1P5 receptor expressed in CHO cells after 120 mins by [35S]GTPgammaS binding assay; type: functional, cell-based
[11] = target: T3, Sphingosine 1-phosphate receptor 3 (Homo sapiens, UniProt Q99500); experiment: Antagonist activity at human S1P3 receptor expressed in CHO cells assessed as inhibition of agonist-induced calcium mobilization preincubated for 20 mins by Fluo-4/FLIPR method; type: functional, cell-based
T3 sequence (Q99500 whole entry): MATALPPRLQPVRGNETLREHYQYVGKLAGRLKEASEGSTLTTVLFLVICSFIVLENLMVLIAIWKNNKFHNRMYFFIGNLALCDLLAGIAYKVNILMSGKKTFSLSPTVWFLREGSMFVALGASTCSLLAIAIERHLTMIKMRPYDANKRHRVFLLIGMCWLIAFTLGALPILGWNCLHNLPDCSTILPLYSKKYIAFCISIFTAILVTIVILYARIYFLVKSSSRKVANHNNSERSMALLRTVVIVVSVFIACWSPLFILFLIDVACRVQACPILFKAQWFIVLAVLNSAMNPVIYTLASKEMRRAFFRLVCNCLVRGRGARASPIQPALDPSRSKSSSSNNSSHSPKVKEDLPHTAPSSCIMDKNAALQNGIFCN

[12] = target: Sphingosine 1-phosphate receptor 2 (Homo sapiens, UniProt O95136); experiment: Antagonist activity at human S1P2 receptor expressed in CHO cells assessed as inhibition of agonist-induced calcium mobilization preincubated for 20 mins by Fluo-4/FLIPR method; type: functional, cell-based
Chain of Sphingosine 1-phosphate receptor 2 (O95136 whole entry): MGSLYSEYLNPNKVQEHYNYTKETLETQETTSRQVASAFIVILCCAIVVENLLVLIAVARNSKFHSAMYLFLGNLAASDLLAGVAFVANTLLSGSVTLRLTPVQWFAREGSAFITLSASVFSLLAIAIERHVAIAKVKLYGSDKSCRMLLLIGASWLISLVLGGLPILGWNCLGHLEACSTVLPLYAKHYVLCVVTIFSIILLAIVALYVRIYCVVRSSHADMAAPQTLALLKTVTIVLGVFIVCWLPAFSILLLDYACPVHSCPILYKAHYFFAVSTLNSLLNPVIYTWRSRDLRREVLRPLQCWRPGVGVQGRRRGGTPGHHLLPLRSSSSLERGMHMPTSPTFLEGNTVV

Rattus norvegicus [13] = experiment: Immunomodulatory activity in rat assessed as decrease in peripheral blood lymphocyte count at 50 mg/kg, po after 1 to 8 hrs; type: functional; design: scale not given: the % may be the effect or the level left
[14] = target: T2, Sphingosine 1-phosphate receptor 4; experiment: Inhibition of S1P4 receptor (unknown origin)
[15] = target: T1, Sphingosine 1-phosphate receptor 5; experiment: Inhibition of S1P5 receptor (unknown origin)
[16] = target: Sphingosine 1-phosphate receptor 1 (Homo sapiens, UniProt P21453); experiment: Antagonist activity at human S1P1 receptor expressed in HEK293 cells assessed as inhibition of S1P-induced decrease in cAMP formation by [35S]GTPgammaS binding assay; type: functional, cell-based
Chain of Sphingosine 1-phosphate receptor 1 (P21453 whole entry): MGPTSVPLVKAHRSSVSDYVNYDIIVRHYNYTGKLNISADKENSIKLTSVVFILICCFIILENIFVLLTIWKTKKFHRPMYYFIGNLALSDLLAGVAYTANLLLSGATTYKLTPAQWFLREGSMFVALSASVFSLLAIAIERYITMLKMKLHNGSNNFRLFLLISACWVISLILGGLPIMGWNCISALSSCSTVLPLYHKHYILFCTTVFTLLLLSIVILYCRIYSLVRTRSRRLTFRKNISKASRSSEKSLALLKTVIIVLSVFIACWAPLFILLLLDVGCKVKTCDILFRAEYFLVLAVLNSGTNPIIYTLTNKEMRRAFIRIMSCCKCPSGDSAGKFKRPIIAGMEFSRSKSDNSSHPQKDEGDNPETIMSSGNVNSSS

[17] = target: T3, Sphingosine 1-phosphate receptor 3; experiment: Inhibition of S1P3 receptor (unknown origin)
[18] = target: T3, Sphingosine 1-phosphate receptor 3; experiment: Agonist activity at S1P3 receptor (unknown origin)
Homo sapiens [19] = experiment: Immunomodulatory activity in multiple sclerosis patient assessed as decrease in peripheral blood lymphocyte count at 5 mg/kg, po; type: functional; design: scale not given: the % may be the effect or the level left
[20] = target: T1, Sphingosine 1-phosphate receptor 5; experiment: Agonist activity at S1P5 receptor (unknown origin)
Homo sapiens [21] = experiment: Immunomodulatory activity in multiple sclerosis patient assessed as decrease in peripheral blood lymphocyte count at 1.25 mg/kg, po; type: functional; design: scale not given: the % may be the effect or the level left

Q: With `Cc1cc(S(=O)(=O)Nc2cccc(-c3cc(C)c(C(=O)N[C@@H](C)C(=O)O)c(C)c3)c2)c(C)cc1Cl` as the compound, how does the Activity (Rattus norvegicus [1]) read?
A: Its Activity is 75%.

Q: For `CCC/N=C1\S/C(=C\c2ccc(OC[C@H](O)CO)c(Cl)c2)C(=O)N1c1ccccc1C` [PONESIMOD], which half-life [2] is on record?
A: The half-life was 30 h.

Q: With `O=C(O)C1CN(Cc2ccc(-c3noc(-c4cc(-c5ccccc5)c(C(F)(F)F)s4)n3)cc2)C1` as the compound, how does the ED50 (Mus musculus) read?
A: Its ED50 is 0.07 mg/kg.

Q: With `Cc1ccc(CCCC(=O)c2ccc(CC[C@@](C)(N)CO)n2C)cc1` as the compound, how does the half-life [2] read?
A: Its half-life is 168 h.

Q: Which results are given for `CCc1cc(/C(C)=N/OCc2ccc(C3CCCCC3)c(C(F)(F)F)c2)ccc1CN1CC(C(=O)O)C1` [SIPONIMOD]?
A: EC50 [3]: 0.98 nM; EC50 [4]: 750 nM; half-life [5]: 30 h

Q: For `Cc1cc([C@@H](C)Nc2cccc(-c3cc(C)c(C(=O)N[C@@H](C)C(=O)O)c(C)c3)c2)ccc1Cl`, which Activity (Rattus norvegicus [6]) is on record?
A: Its Activity is 60%.

Q: What about the IC50 [7] of the same compound?
A: Its IC50 is greater than 10000 nM.

Q: And the EC50 [8]?
A: The EC50 was 245 nM.

Q: And the Activity (Rattus norvegicus [9])?
A: Its Activity is 75%.

Q: What about the IC50 [10] of the same compound?
A: Its IC50 is greater than 10000 nM.

Q: And the IC50 [11]?
A: The IC50 was greater than 10000 nM.

Q: And the IC50 [12]?
A: The IC50 was greater than 10000 nM.

Q: With `CCn1c(OC)nnc1[C@@H](C)NS(=O)(=O)c1ccc(F)c(Cl)c1` as the compound, how does the Activity (Rattus norvegicus [13]) read?
A: The Activity was greater than 70%.

Q: And the Ki [14]?
A: Its Ki is greater than 10000 nM.

Q: And the Ki [15]?
A: Its Ki is greater than 10000 nM.

Q: What about the IC50 [16] of the same compound?
A: The IC50 was 383 nM.

Q: What about the Ki [16] of the same compound?
A: The Ki was 249 nM.

Q: What about the Ki [17] of the same compound?
A: The Ki was 4880 nM.

Q: For `CCCCCCCCc1ccc(CCC(N)(CO)CO)cc1` [FINGOLIMOD], which EC50 [18] is on record?
A: The EC50 was 3 nM.

Q: What about the EC50 [8] of the same compound?
A: The EC50 was 0.3 nM.

Q: What about the Activity (Homo sapiens [19]) of the same compound?
A: Its Activity is 20%.

Q: What about the EC50 [20] of the same compound?
A: Its EC50 is 0.3 nM.

Q: What about the half-life [5] of the same compound?
A: Its half-life is 216 h.

Q: And the Activity (Homo sapiens [21])?
A: Its Activity is 20%.
